Results published in patent US5556859A, “N-(4-pyrimidinyl)amide pesticides” (DowElanco, priority 1994, dated 1996).

Columns and labels:
[1] = test system: Southern corn rootworm (Diabrotica undecimpuctata howardi Barber); assay: whole plant or invertebrate; conditions: in Zea mays, soil, read-out: percent mortality, SCRW
[2] = test system: cotton aphid (Aphis gossypii); assay: whole plant or invertebrate; conditions: 72 h, read-out: percent mortality, CA
[3] = test system: German cockroach (Blattella germanicus); assay: whole plant or invertebrate; conditions: 240 h, read-out: percent mortality, GECR
[4] = test system: two spotted spider mite (Tetranychus urticae); assay: whole plant or invertebrate; conditions: 72 h, read-out: percent mortality, TSSM
[5] = test system: peanut root knot nematode (Meloidogyne arenaria); assay: whole plant or invertebrate; conditions: in Arachis hypogaea, read-out: percent mortality, RKN
[6] = test system: beet armyworm (Spodoptera exiqua); assay: whole plant or invertebrate; conditions: 144 h, read-out: percent mortality, BAW
[7] = test system: aster leafhopper (Macrosteles fascifrons); assay: whole plant or invertebrate; conditions: 24 h, read-out: percent mortality, ALH
[8] = test system: tobacco budworm (Heliothis virescens); assay: Activity against tobacco budworm (TBW); format: in vivo; conditions: 144 h, read-out: percent mortality, TBW
Protocol: In conducting evaluations of insecticidal activity, each test compound was formulated as a 400 ppm solution, and this solution was then diluted with water to give lesser concentrations. The 400 ppm solution was prepared by combining 19.2 mL of 0.05% solution of Tween 20 (polyoxyethylene (20) sorbitan monolaurate) in water with a solution of 8 mg of the compound in 0.8 mL of acetone/EtOH (9/1).
Activity against tobacco budworm (Heliothis virescens) was evaluated as follows. A general purpose lepidoptera artificial diet was diluted to half strength with a 5% non nutritive agar. 8 mL of this diet material was dispensed into each one ounce diet cup. One hour prior to treatment 18 to 20 eggs were dispensed onto the diet surface. The cups were then sprayed with formulated material through a flat-fan nozzle. The test was run using concentrations of 400 ppm and 50 ppm. Treated cups were air dried prior to sealing with plastic caps. The cups were held for 6 days at room temperature. Activity was then rated based on the total number of live and dead larvae, and on the size of live larvae.

Structure (SMILES)	mortality at 24 µg/g [1] [%]	mortality at 400 ppm [2] [%]	mortality at 400 ppm [3] [%]	mortality at 400 ppm [4] [%]	mortality at 400 ppm [5] [%]	mortality at 400 ppm [6] [%]	mortality at 400 ppm [7] [%]	mortality at 400 ppm [8] [%]
CSc1nccc(NC(=O)Cc2ccc(Oc3ccc(F)cc3)cc2)n1 [Compound 6, 4-(4-fluorophenoxy)phenyl-N-(2-methylthio-4-pyrimidinyl)acetamide]	100	100	60	0	0	100	100	90
CCc1nccc(NC(=O)Cc2ccc(OCC(F)(F)F)cc2)n1 [Compound 9, 4-(2,2,2-trifluroethoxy)phenyl-N-(2-ethyl-4-pyrimidinyl)acetamide]	0	100	0	0	0	100	100	100
O=C(Cc1ccc(Oc2ccc(C(F)(F)F)cc2)cc1)Nc1ccnc(C2CCC2)n1 [Compound 66, 4-(4-trifluoromethylphenoxy)phenyl-N-(2-cyclobutyl-4-pyrimidinyl)acetamide]	100	100	100	100	–	100	40	100
CCc1nccc(NC(=O)C(=CN(C)C)c2ccc(Oc3ccc(Cl)cc3)cc2)n1 [Compound 76, 3-(dimethylamino)-N-(2-ethyl-4-pyrimidinyl)-1-(4-(4-chlorophenoxy)phenyl)-2-propenamide]	100	100	80	80	100	100	100	100
O=C(Cc1ccc(Oc2ccc(F)cc2)cc1)Nc1ccnc(-c2ccccc2)n1 [Compound 7, 4-(4-fluorophenoxy)phenyl-N-(2-phenyl-4-pyrimidinyl)acetamide]	0	100	60	0	0	60	0	60
CC(C)(C)c1nccc(NC(=O)Cc2ccc(Oc3ccc(C#N)cc3)cc2)n1 [Compound 60, 4-(4-cyanophenoxy)phenyl-N-(2-(1,1-dimethylethyl)-4-pyrimidinyl)acetamide]	100	100	100	100	100	100	100	100
Cc1nccc(NC(=O)Cc2ccc(Oc3cccc(C(F)(F)F)c3)cc2)n1 [Compound 69, 4-(3-trifluoromethylphenoxy)phenyl-N-(2-methyl-4-pyrimidinyl)acetamide]	0	0	0	0	–	80	40	80
CCCCc1nccc(NC(=O)Cc2ccc(Oc3ccc(C(F)(F)F)cc3)cc2)n1 [Compound 65, 4-(4-trifluoromethylphenoxy)phenyl-N-(2-butyl-4-pyrimidinyl)acetamide]	0	100	100	100	–	100	0	100
CCc1nccc(NC(=O)Cc2ccc(Oc3ncc(C(F)(F)F)cc3F)cc2)n1 [Compound 32, 4-(3-fluoro-5-trifluromethyl-2-pyridinyloxy)phenyl-N-(2-ethyl-4-pyrimidinyl)acetamide]	0	100	60	100	100	100	–	100
CCc1nccc(NC(=O)Cc2ccc(Oc3ccc(S(C)(=O)=O)cn3)cc2)n1 [Compound 36, 4-(5-methylsulfonyl-2-pyridinyloxy)phenyl-N-(2-ethyl-4-pyrimidinyl)acetamide]	0	40	40	0	100	100	–	100
CC(C)c1nccc(NC(=O)Cc2ccc(Oc3ccc(C(F)(F)F)cc3)cc2)n1 [Compound 72, 4-(4-trifluoromethylphenoxy)phenyl-N-(2-(1-methylethyl)-4-pyrimidinyl)acetamide]	100	100	100	100	100	0	–	100
O=C(Cc1ccc(Oc2ccc(Cl)cc2)cc1)Nc1ccnc(C2CC2)n1 [Compound 29, 4-(4-chlorophenoxy)phenyl-N-(2-cyclopropyl-4-pyrimidinyl)acetamide]	0	100	100	100	0	100	–	100
CCCc1nccc(NC(=O)Cc2ccc(Oc3ccc(F)cc3)cc2)n1 [Compound 19, 4-(4-fluorophenoxy)phenyl-N-(2-propyl-4-pyrimidinyl)acetamide]	100	100	100	100	100	100	–	100
CCc1nccc(NC(=O)Cc2ccc(OCC(F)(F)F)cn2)n1 [Compound 35, 5-(2,2,2-trifluoromethoxy)-2-pyridinyl-N-(2-ethyl-4-pyrimidinyl)acetamide]	100	100	80	100	100	100	–	60
CC(C)(C)c1nccc(NC(=O)Cc2ccc(Oc3ccc(F)cc3)cc2)n1 [Compound 25, 4-(4-fluorophenoxy)phenyl-N-(2-(1,1-dimethylethyl)-4-pyrimidinyl)acetamide]	100	100	100	100	100	100	–	100
CCc1nccc(NC(=O)Cc2ccc(Oc3ccc(Cl)cc3)cc2)n1 [Compound 17, 4-(4-chlorophenoxy)phenyl-N-(2-ethyl-4-pyrimidinyl)acetamide]	100	100	100	100	100	100	–	100
COCc1nccc(NC(=O)Cc2ccc(OCC(F)(F)F)cc2)n1 [Compound 38, 4-(2,2,2-trifluroethoxy)phenyl-N-(2-(methoxymethyl)-4-pyrimidinyl)acetamide]	0	0	0	0	0	0	–	0
